The text below walks through data of patent publication US4087328A, “Purification and immobilization of sulfhydryl oxidase” (Research Triangle Institute, priority 1975, dated 1978).

The test system of this assay is sulfhydryl oxidase. The experiment in a line: Effect of metal ions and EDTA on sulfhydryl oxidase activity. It is filed as biochemical, bovine. As for the experimental part: In the second method of assay, the rate of O2 consumption was measured with an oscillating platinum electrode using a Gilson model K Oxygraph. In a typical assay, 0.2 ml of enzyme solution was added to 1.5 ml of 0.8 mM GSH which had been equilibrated at 35° in the electrode cell. […] Enzymic reaction rates were calculated from the initial slopes obtained.
Assays were performed in phosphate at pH 7.0 and 35° using 0.8 mM GSH as substrate. An aliquot of the stock enzyme solution was removed and assayed in the presence of 1.0 mM EDTA. […] Controls were prepared using boiled enzyme and also using the dialysate containing the metal ion. In both cases, significant O2 consumption was not observed.

[1] abbreviates: EDTA-treated enzyme dialyzed against 1.0 mM solution of the metal ion, phosphate pH 7.0, 35°, 0.8 mM GSH.

The compound `[Cl][Co][Cl]` [Cobalt chloride] registered an Enzyme activity under setting [1] of 0.021 μmol O2 consumed/min. The same measure, in the same setting: the same measure for `O=S(=O)([O-])[O-].[Cu+2]` [Copper sulfate]: 0.109 μmol O2 consumed/min. For `O=C(O)CN(CCN(CC(=O)O)CC(=O)O)CC(=O)O` [EDTA], the “Effect of EDTA treatment on enzyme activity” value is “complete loss of activity”. For the same compound, the Enzyme activity (pH 7) came out at 0.012 μmol O2 consumed/min. On to `[Cl][Mn][Cl]` [Manganese (II) chloride], for which, under setting [1], the Enzyme activity is on record as 0.085 μmol O2 consumed/min. With `[Br][Mo][Br]` [Molybdenum dibromide, molybdenum dibromide], the Enzyme activity under setting [1] amounted to 0.008 μmol O2 consumed/min. Still for that read-out and setting: the same measure for `O=S(=O)([O-])[O-].[Zn+2]` [Zinc sulfate]: 0.029 μmol O2 consumed/min.

As to Ferrous sulfate, the Enzyme activity under setting [1] was 0.256 μmol O2 consumed/min. Besides, the “Restoration of activity after EDTA treatment” value (dialysis against 1 μM ferrous sulfate) is on record as “restored”.
